Test system: Human sebocytes
Assay: Test of sebum secretion-inhibiting effect using human sebocytes (linoleic acid-induced, Bodipy lipid staining)
Type: cell-based
Description: Human sebocytes were cultured for 24 hours in an environment of 37° C. and 5% CO2 with Sebocyte Complete Culture Media (Celprogen), and then treated with 100 μM linoleic acid and 0.1, 0.5, 1, and 2 ppm Melasolv and cultured for another 48 hours.
Thereafter, the cells were fixed with formaldehyde, and lipids were stained with 2 μM Bodipy. Fluorescence intensity was measured at a specific wavelength (Excitation/Emission: 485/528 nm) using a Fluorescent Plate Reader.

Structure (SMILES)	amount of sebum production (concentration dependence) (0.1, 0.5, 1, and 2 ppm Melasolv together with 100 μM linoleic acid, 48 hours (FIG. 1))	sebum production seen in fluorescence photograph (FIG. 2) (2 ppm Melasolv, naked-eye observation of Bodipy fluorescence photograph)	inhibition at 2 ppm (Homo sapiens, 2 ppm Melasolv with 100 μM linoleic acid, 48 hours, based on the amount of sebum production induced by linoleic acid, Bodipy fluorescence (FIG. 1)) [%]	sebum production, percentage compared to the untreated control group (100%) (100 μM linoleic acid alone (inducer), 48 hours, Bodipy fluorescence) [%]
COc1cc(/C=C/C(=O)Oc2cc(C)ccc2C(C)C)cc(OC)c1OC [Melasolv, (5-methyl-2-propan-2-ylphenyl) (E)-3-(3,4,5-trimethoxyphenyl)prop-2-enoate]	decreased in proportion to the concentration	most inhibited	~60.3	
CCCCC/C=C\C/C=C\CCCCCCCC(=O)O [linoleic acid, reference compound]				142

Source: patent US20260144770A1, “COMPOSITION FOR INHIBITING SEBUM SECRETION CONTAINING A THYMOL ESTER-BASED COMPOUND” (AMOREPACIFIC CORPORATION, priority 2024, published 2026)
